Source: ChEMBL document CHEMBL2424545, “Structure-efficiency relationship of [1,2,4]triazol-3-ylamines as novel nicotinamide isosteres that inhibit tankyrases” (J Med Chem, 2013)

target: T1, Poly [ADP-ribose] polymerase tankyrase-2 (Homo sapiens, UniProt Q9H2K2); test: Inhibition of N-terminal GST-tagged TNKS2 (unknown origin) expressed in baculovirus infected sf21 cells after 60 mins by LC-MS analysis
T1 sequence (Q9H2K2 whole entry): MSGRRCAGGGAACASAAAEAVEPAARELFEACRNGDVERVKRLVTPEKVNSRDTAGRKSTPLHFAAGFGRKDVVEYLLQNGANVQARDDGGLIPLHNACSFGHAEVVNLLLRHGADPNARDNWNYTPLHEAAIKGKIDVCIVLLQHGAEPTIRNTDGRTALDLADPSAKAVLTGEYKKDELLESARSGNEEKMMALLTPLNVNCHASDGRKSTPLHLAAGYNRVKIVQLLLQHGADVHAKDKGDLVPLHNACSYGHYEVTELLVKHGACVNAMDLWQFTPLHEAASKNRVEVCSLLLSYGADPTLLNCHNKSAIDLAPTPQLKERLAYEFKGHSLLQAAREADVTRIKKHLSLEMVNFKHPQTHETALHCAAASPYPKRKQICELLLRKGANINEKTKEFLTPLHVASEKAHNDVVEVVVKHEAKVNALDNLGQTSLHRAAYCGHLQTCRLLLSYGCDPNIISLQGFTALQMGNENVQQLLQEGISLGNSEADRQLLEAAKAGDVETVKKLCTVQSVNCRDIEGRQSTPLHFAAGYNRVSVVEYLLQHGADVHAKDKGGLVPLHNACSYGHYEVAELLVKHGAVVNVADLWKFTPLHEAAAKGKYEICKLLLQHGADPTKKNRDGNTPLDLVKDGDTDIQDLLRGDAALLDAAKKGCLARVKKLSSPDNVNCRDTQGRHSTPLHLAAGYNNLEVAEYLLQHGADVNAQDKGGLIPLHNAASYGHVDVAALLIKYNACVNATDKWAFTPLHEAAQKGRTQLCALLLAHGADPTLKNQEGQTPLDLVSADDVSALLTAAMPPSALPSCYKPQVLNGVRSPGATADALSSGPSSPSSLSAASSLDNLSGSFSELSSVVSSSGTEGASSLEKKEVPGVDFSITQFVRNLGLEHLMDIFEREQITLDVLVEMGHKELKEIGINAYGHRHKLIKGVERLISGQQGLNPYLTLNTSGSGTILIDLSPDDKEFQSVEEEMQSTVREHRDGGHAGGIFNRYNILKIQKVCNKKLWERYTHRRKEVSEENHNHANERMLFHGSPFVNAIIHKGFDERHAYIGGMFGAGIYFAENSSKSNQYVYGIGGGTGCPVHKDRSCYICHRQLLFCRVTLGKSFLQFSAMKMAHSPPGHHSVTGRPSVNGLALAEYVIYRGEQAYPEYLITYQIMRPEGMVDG

Structure (SMILES)	IC50 [nM]
O=C(Nc1nnc2n1CCS2)C1CCC1	264
O=C(Nc1nnc2n1CCS2)C1CCCC1	220
O=C(CC1CCOCC1)Nc1nnc2n1CCS2	202
O=C(CCCc1ccccc1)Nc1nnc2n1CCS2	303
O=C(NCc1ccccc1)Nc1nnc2n1CCS2	444
O=C(CCC1CCNCC1)Nc1nnc2n1CCS2	2320
O=C(CCc1cccnc1)Nc1nnc2n1CCS2	138
O=C(CCc1ccncc1)Nc1nnc2n1CCS2	134
O=C(CCn1cncn1)Nc1nnc2n1CCS2	1790

Next, values leading:

IC50 [nM]	Structure (SMILES)
88	O=C(CCc1ccco1)Nc1nnc2n1CCS2
89	O=C(CCCC1CCCCC1)Nc1nnc2n1CCS2
26	O=C(CCC1CCCCCC1)Nc1nnc2n1CCS2
39	O=C(CCc1ccccc1)Nc1nnc2n1CCS2
70	O=C(Nc1nnc2n1CCS2)C1CCCCC1
33	Cc1cccc(C)c1CCC(=O)Nc1nnc2n1CCS2
20	O=C(CC1CCCCC1)Nc1nnc2n1CCS2
12	O=C(CCc1ccccc1F)Nc1nnc2n1CCS2

test system: not listed separately; test: Inhibition of Wnt signaling in human HEK293 cells by STF luciferase reporter gene assay

Structure (SMILES)	IC50 [nM]
O=C(Nc1nnc2n1CCS2)C1CCC1	13800
O=C(Nc1nnc2n1CCS2)C1CCCC1	12800
O=C(CC1CCOCC1)Nc1nnc2n1CCS2	10300
O=C(CCCc1ccccc1)Nc1nnc2n1CCS2	6460
O=C(NCc1ccccc1)Nc1nnc2n1CCS2	17600
O=C(CCC1CCNCC1)Nc1nnc2n1CCS2	> 50000
O=C(CCc1cccnc1)Nc1nnc2n1CCS2	6290
O=C(CCc1ccncc1)Nc1nnc2n1CCS2	12700
O=C(CCn1cncn1)Nc1nnc2n1CCS2	> 10000

Molecules with a lower IC50, results first:

IC50 [nM]	Structure (SMILES)
5350	O=C(CCc1ccco1)Nc1nnc2n1CCS2
4520	O=C(CCCC1CCCCC1)Nc1nnc2n1CCS2
2180	O=C(CCC1CCCCCC1)Nc1nnc2n1CCS2
1670	O=C(CCc1ccccc1)Nc1nnc2n1CCS2
1540	O=C(Nc1nnc2n1CCS2)C1CCCCC1
1210	Cc1cccc(C)c1CCC(=O)Nc1nnc2n1CCS2
429	O=C(CC1CCCCC1)Nc1nnc2n1CCS2
345	O=C(CCc1ccccc1F)Nc1nnc2n1CCS2
78	Oc1nc(-c2ccc(C(F)(F)F)cc2)nc2c1CSCC2
